Broadly, the half-life is the time in which the quantity being followed falls by half. High values mean slow decline, low ones rapid decline.

The nature of one series: clinical. To be noted: for half-life: human, in vivo, iv. As for the experimental part:
(§1) The assays were performed in triplicate. […] For each determination, an identical volume of preimmune serum was assayed as a control for antibody binding. […] After an incubation period of 1 hr at 25° C., 100 μl of goat-antirabbit 1 gG antiserum was added to each tube with 50 μl of normal rabbit 1 gG as a carrier for the precipitation. The tubes were again incubated at 25° C. for 30 min. The precipitates were washed twice in Tris buffer and spun in a Sorvall table-top centrifuge at 2,000 rpm×10 min. After the supernatant was decanted, the precipitates were dissolved in 1 ml of 1% sodium dodecyl sulfate. Bound radioactivity was counted in the presence of 10 ml of Aquasol-2 (New England Nuclear) in a Packard Tricarb liquid scintillation counter with a counting efficiency of 40%.
(§2) The assays to determine the competitive binding of potentially cross-reactive drugs were performed on sera obtained from patients on long-term maintenance with single drugs; digoxin, imipramine and alphamethyldopa, respectively.
To further document the reproducibility of the assay, each serum sample from a single subject was assayed in replicate fashion at dilutions of 1:2, 1:3 and 1:4 in pooled human serum.

In series [1] the test system is exercise heart rate (patients). Description: Cardiovascular stress testing of patients on oral propranolol, serum propranolol concentration vs. heart rate and blood pressure. It counts as in vivo, human. How it is done:
The assays were performed in triplicate. […] The ^3 H-(-)-propranolol was obtained from New England Nuclear Corporation. […] The standard curve for the radioimmunoassay was derived from triplicate assay of pooled human serum containing varying amounts of added (±) propranolol HCl. For each determination, an identical volume of preimmune serum was assayed as a control for antibody binding. […] After an incubation period of 1 hr at 25° C., 100 μl of goat-antirabbit 1 gG antiserum was added to each tube with 50 μl of normal rabbit 1 gG as a carrier for the precipitation. The tubes were again incubated at 25° C. for 30 min. The precipitates were washed twice in Tris buffer and spun in a Sorvall table-top centrifuge at 2,000 rpm×10 min. After the supernatant was decanted, the precipitates were dissolved in 1 ml of 1% sodium dodecyl sulfate. Bound radioactivity was counted in the presence of 10 ml of Aquasol-2 (New England Nuclear) in a Packard Tricarb liquid scintillation counter with a counting efficiency of 40%.
All subjects were submitted to standard, graded exercise according to the Bruce protocol, and 36 of 54 patients attained at least Stage II of exertion (greater than 6 min of sustained exertion).

The conditions of series [2]: result in words, cited from earlier work.
For series [3], the target named is antibody (antiacebutolol amine immune serum). Nature of the series: Competitive binding inhibition of 3H-(-)-propranolol to anti-acebutolol amine antibody (radioimmunoassay). Details: species or system rabbit. The conditions noted are these: for competitive inhibition of 3H-propranolol binding to the antibody: sera containing the drug. As for the experimental part:
Acebutolol amine having the formula: [drawing 3] was covalently linked to lysozyme. 150 mg of acebutolol amine was dissolved in 1.0 N HCl and was cooled to 0° C. in a salt ice bath. To this solution was added 1 cc of 0.5 M NaNO2 also at 0° C. and the resultant mixture was allowed to stand at 0° C. for 10 min. A mixture of 200 mg crystalline lysozyme in 15% aqueous sodium carbonate at 0° C. was added to 2.0 cc of the above mixture. […] The resultant product was dialyzed against phosphate buffered saline and the purified conjugate was frozen in dry ice-acetone and stored at -20° C. The product then was thawed and centrifuged for 10 min at 3000 rpm. The supernatant was recovered and mixed with Tris buffer, pH 7 at a concentration of 30 mg/ml.
Albino rabbits were immunized with this conjugate at monthly intervals for four months. Each rabbit received intracutaneous toepad injections of 0.5 mg of protein emulsified in complete Freund's adjuvant.
as §1, §2

A further series concerns beta-adrenergic receptor. The conditions noted are these: metabolite of propranolol, result in words, cited from earlier work.

Like-named read-outs stand apart in the source and are kept apart here. Where only a bound is given, the exact number is not on record here.

Turning to `CC(C)NCC(O)COc1cccc2ccccc12` (racemic) [propranolol], the half-life in “clinical” (range of serum half-life observed in subjects) was 300 to 450 min; in the series “clinical” (serum half-life), about 450 min. The “time the drug remains detectable in serum” value in “clinical” (single intravenous administration) is given as “six to twelve”. Moreover, the “correlation between increases in blood pressure or heart rate and serum concentration” value in series [1] (54 patients, exercise, result in words) is “lack of correlation”. The “relationship of basal heart rate to plasma concentration, response to exercise, or administered dose” value in series [1] (54 patients, long-term oral propranolol, result in words) is recorded as “failed to show any significant relationship”. Also, the “p of linear relationship between exercise response (percent of maximal predicted heart rate for age) and serum propranolol concentration” value in series [1] (FIG. 3, linear regression analysis) was under 0.0005. In addition, in series [1] (adequately blocked patients, oral), the “average daily dose in adequately blocked patients” value is 2.45 ± 2.89 mg/kg/day. In addition, the “p of difference in average daily dose, adequately vs. inadequately blocked patients” value in series [1] (human, in vivo) is reported as under 0.001. Besides, the “average daily dose in inadequately blocked patients” value in series [1] (inadequately blocked patients, oral) is reported as 1.14±0.62. For the same compound, the “patients who achieved an exercise response of <67% of predicted” value in series [1] (serum level <250 ng/ml) was 3/33. Besides, in series [1] (serum level >250 ng/ml), the “patients with exercise response consistent with adequate beta-adrenergic blockade” value is 10/16. For the same compound, the “correlation of serum propranolol and heart rate response to maximal exercise” value in series [1] (study of 56 patients, result in words) is recorded as “highly significant”. The “conversion by the liver to 4 OH-propranolol” value in series [2] (oral administration) is “a significant fraction of the administered dose is converted by the liver to 4 OH-propranolol”. Further, the bio-availability entry in series [2] is on record as “markedly variable bio-availibility”.

As to `CC(C)NCC(O)COc1ccc(O)c2ccccc12` (stereo not drawn) [4-hydroxypropranolol], the Kd in series [3] (3H-(-)-propranolol displacement from antibody, read-out: apparent KD (competitive binding inhibition)) amounted to 10 nM. Also, the figures for the “biological activity at the beta-adrenergic receptor” value in the series with beta-adrenergic receptor and in the series with beta-adrenergic receptor (listed as 4 OH-propranolol) were “equipotent beta adrenergic receptor antagonist” and “retains full biological activity”, respectively. Moreover, in series [2], the “detectability of metabolite in serum” value is on record as “detectable in serum only after the oral route of drug administration”.

As to `NC[C@H](O)c1ccc(O)c(O)c1` [(-)-norepinephrine], in series [3] (result in words), the “competitive inhibition of 3H-propranolol binding to the antibody” value (“competitive inhibition” for short) is “failed to produce significant competitive inhibition”.

Turning to `CC(=O)c1ccc(N)cc1OCC(O)CNC(C)C` (stereo not drawn) [acebutolol amine], in series [3] (FIG. 1, result in words), the “competitive binding inhibition curve compared with propranolol” value is listed as “yields a curve analogous to the displacement binding observed with propranolol”.

With `C[C@](N)(Cc1ccc(O)c(O)c1)C(=O)O` [alpha methyldopa], the “competitive inhibition” value in series [3] (result in words) is given as “failed to produce significant competitive inhibition”.

On to `C[C@H]1O[C@@H](O[C@H]2[C@@H](O)C[C@H](O[C@H]3[C@@H](O)C[C@H](O[C@H]4CC[C@@]5(C)[C@H](CC[C@@H]6[C@@H]5C[C@@H](O)[C@]5(C)[C@@H](C7=CC(=O)OC7)CC[C@]65O)C4)O[C@@H]3C)O[C@@H]2C)C[C@H](O)[C@@H]1O` [digoxin], for which, in series [3] (result in words), the “competitive inhibition” value is reported as “failed to produce significant competitive inhibition”.

Regarding `NCCc1ccc(O)c(O)c1` [dopamine], the “competitive inhibition” value in series [3] (result in words) is listed as “failed to produce significant competitive inhibition”.

Regarding `CN(C)CCCN1c2ccccc2CCc2ccccc21` [imipramine], in series [3] (result in words), the “competitive inhibition” value is listed as “failed to produce significant competitive inhibition”.

(Values after patent publication US4332787A, “Assay for beta-adrenergic antagonists and antibody therefor” (The Massachusetts General Hospital, priority 1980, dated 1982).)
